Key:
[1] = molecular target: T1, Receptor-type tyrosine-protein phosphatase C (Homo sapiens, UniProt P08575); parameters: species or system Escherichia coli;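 also: inhibition of CD45 enzyme activity measured using DiFMUP as substrate; in other assays of this panel Not Active means under 50% inhibition at 10 µM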
T1 sequence (P08575 whole entry): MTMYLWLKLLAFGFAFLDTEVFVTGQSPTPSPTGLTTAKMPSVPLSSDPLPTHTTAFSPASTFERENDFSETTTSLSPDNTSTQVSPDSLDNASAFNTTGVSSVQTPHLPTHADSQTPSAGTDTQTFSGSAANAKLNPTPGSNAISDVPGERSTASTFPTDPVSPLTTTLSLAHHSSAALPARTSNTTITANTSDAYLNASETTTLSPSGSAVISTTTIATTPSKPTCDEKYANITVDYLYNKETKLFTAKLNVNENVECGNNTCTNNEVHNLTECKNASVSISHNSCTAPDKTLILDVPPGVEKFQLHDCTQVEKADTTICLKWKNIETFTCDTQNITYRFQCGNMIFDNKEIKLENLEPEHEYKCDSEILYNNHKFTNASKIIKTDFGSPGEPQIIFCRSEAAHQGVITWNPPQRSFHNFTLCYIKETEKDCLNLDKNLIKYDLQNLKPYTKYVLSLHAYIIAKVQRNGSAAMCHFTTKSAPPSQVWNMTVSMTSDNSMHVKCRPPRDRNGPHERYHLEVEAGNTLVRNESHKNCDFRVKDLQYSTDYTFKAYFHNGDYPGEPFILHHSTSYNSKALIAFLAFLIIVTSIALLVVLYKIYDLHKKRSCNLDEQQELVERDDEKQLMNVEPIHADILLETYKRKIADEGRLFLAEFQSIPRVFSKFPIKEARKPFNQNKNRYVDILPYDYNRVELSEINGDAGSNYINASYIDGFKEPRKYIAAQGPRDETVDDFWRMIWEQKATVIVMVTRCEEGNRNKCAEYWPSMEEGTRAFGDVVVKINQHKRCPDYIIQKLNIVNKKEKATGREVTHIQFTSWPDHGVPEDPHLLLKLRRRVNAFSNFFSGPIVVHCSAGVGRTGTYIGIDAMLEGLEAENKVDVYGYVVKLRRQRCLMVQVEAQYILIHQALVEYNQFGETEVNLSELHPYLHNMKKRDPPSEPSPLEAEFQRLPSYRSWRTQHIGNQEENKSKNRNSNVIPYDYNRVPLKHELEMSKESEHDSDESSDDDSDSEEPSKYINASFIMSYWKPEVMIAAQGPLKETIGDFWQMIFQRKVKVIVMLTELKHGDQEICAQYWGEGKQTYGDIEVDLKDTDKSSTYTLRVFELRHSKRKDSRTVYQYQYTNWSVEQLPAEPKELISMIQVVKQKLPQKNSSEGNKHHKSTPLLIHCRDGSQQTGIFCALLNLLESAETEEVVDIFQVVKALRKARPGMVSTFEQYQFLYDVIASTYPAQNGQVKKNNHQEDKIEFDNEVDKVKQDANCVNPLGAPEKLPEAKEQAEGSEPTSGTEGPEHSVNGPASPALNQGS

[2] = DRUGMATRIX: Sigma2 radioligand binding (ligand: [3H] Ifenprodil); type: cell membranes, Rattus norvegicus, Wistar, Brain, Membrane; settings: Not Active = under 50% inhibition at 10 µM
[3] = molecular target: Receptor tyrosine-protein kinase erbB-2 (Homo sapiens, UniProt P04626); assay: biochemical; type: cell-based, Insect cells; settings: insect cells;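 also: inhibition of HER2 kinase enzyme activity, measured with Poly(Glu:Tyr) as the phosphorylation substrate; in other assays of this panel Not Active means under 50% inhibition at 10 µM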
[4] = molecular target: Platelet-activating factor receptor (Homo sapiens, UniProt P25105); type: tissue-based; also: in other assays of this panel Not Active means under 50% inhibition at 10 µM
[5] = molecular target: T2, Alpha-2A adrenergic receptor (Homo sapiens, UniProt P08913); type: cell membranes, Sf9, Membrane; settings: sf9; also: in other assays of this panel Not Active means under 50% inhibition at 10 µM
T2 sequence (P08913 whole entry): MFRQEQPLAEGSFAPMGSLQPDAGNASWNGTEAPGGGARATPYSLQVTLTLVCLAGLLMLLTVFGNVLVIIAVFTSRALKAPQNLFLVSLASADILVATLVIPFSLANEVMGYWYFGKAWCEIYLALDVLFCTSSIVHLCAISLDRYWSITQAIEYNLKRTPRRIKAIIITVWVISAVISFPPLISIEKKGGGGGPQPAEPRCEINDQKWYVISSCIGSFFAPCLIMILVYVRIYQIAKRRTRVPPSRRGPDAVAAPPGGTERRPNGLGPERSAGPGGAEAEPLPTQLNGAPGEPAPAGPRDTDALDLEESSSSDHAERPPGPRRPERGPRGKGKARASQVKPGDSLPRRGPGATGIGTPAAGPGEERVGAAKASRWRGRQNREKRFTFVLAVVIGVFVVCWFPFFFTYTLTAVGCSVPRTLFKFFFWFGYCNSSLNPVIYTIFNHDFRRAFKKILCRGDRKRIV

[6] = molecular target: Cytochrome P450 2E1 (Homo sapiens, UniProt P05181); settings: bti-tn-5b1-4; also: in other assays of this panel Not Active means under 50% inhibition at 10 µM
[7] = molecular target: Aldo-keto reductase family 1 member B1 (Rattus norvegicus, UniProt P07943); assay: biochemical; type: tissue-based, Lens of camera-type eye

Cytochrome P450 2E1, sequence (P05181 whole entry): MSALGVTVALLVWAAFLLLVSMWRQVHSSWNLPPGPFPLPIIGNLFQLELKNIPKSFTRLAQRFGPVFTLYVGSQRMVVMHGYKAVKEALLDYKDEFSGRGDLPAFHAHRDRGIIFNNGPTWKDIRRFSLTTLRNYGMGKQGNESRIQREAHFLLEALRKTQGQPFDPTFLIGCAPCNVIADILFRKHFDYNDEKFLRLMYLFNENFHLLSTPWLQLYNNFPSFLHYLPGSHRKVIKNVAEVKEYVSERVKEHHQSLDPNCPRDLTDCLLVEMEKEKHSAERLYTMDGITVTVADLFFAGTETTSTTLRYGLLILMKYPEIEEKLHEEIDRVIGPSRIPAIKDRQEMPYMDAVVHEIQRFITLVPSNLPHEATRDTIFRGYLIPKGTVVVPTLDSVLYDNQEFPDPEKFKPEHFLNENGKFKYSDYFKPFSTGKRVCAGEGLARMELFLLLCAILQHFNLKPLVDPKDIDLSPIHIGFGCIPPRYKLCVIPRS
Receptor tyrosine-protein kinase erbB-2, sequence (P04626 whole entry): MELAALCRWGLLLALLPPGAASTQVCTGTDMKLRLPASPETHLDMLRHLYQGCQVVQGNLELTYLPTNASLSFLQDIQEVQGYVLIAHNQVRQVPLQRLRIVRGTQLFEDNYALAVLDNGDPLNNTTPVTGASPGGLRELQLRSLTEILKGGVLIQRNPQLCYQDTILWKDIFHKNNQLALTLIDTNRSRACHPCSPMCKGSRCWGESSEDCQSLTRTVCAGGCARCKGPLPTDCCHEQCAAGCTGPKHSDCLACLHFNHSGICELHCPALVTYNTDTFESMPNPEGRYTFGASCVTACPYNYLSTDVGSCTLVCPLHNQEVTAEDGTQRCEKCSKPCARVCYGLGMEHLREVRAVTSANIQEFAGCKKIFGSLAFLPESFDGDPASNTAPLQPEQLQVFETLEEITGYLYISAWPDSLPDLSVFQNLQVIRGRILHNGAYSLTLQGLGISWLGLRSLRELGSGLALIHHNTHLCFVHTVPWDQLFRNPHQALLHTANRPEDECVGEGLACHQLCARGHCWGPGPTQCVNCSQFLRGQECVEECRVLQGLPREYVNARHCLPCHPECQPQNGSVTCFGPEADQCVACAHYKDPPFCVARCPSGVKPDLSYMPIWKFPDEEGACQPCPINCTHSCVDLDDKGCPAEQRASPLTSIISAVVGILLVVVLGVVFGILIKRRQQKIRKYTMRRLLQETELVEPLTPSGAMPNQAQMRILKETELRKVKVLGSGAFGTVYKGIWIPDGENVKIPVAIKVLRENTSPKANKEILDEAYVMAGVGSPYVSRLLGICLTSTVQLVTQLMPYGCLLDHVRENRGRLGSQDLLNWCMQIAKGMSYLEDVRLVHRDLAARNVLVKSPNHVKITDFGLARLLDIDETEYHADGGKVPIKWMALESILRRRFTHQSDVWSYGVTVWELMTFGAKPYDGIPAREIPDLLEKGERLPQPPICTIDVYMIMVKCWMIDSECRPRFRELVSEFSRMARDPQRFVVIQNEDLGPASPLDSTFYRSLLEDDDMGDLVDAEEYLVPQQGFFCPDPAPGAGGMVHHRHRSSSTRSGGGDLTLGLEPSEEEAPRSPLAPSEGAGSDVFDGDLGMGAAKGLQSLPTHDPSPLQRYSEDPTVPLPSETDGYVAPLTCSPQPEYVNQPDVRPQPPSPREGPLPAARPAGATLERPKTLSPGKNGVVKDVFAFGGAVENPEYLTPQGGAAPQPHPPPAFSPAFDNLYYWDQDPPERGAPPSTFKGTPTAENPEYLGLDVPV
Platelet-activating factor receptor, sequence (P25105 whole entry): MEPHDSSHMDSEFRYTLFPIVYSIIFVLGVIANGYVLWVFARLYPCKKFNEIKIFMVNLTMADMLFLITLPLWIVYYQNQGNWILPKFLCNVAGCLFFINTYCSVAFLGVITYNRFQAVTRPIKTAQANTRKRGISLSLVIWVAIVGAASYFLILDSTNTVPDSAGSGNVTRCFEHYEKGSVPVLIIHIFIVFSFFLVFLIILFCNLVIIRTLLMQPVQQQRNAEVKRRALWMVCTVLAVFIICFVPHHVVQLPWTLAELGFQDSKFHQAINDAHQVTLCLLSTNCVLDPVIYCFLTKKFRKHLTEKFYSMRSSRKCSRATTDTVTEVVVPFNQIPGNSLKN

## CN1CCN(c2c(F)cc3c(=O)c(C(=O)O)cn(CCF)c3c2F)CC1 [FLEROXACIN]
[1]
  IC50: Not Active
[2]
  IC50: Not Active
  Ki: Not Active
[3]
  IC50: Not Active
[4]
  IC50: Not Active
[5]
  IC50: Not Active
[6]
  IC50: Not Active
  Ki: Not Active
[7]
  IC50: Not Active

## O=c1[nH]c(=O)n([C@H]2C[C@H](O)[C@@H](CO)O2)cc1F [FLOXURIDINE]
[1]
  IC50: Not Active
[2]
  IC50: Not Active
  Ki: Not Active
[3]
  IC50: Not Active
[4]
  IC50: Not Active
[5]
  IC50: Not Active
[6]
  IC50: Not Active
  Ki: Not Active
[7]
  IC50: Not Active

## COC(=O)Nc1nc2cc(C(=O)c3ccc(F)cc3)ccc2[nH]1 [FLUBENDAZOLE]
[1]
  IC50: Not Active
[2]
  IC50: Not Active
  Ki: Not Active
[3]
  IC50: Not Active
[4]
  IC50: Not Active
[5]
  IC50: Not Active
[6]
  IC50: Not Active
  Ki: Not Active
[7]
  IC50: Not Active

## CC(=O)OCC(=O)[C@@]1(O)CC[C@H]2[C@@H]3CCC4=CC(=O)CC[C@]4(C)[C@@]3(F)[C@@H](O)C[C@@]21C [FLUDROCORTISONE ACETATE]
[1]
  IC50: Not Active
[2]
  IC50: Not Active
  Ki: Not Active
[3]
  IC50: Not Active
[4]
  IC50: Not Active
[5]
  IC50: Not Active
[6]
  IC50: Not Active
  Ki: Not Active
[7]
  IC50: Not Active

## CCOC(=O)c1ncn2c1CN(C)C(=O)c1cc(F)ccc1-2 [FLUMAZENIL]
[1]
  IC50: Not Active
[2]
  IC50: Not Active
  Ki: Not Active
[3]
  IC50: Not Active
[4]
  IC50: Not Active
[5]
  IC50: Not Active
[6]
  IC50: Not Active
  Ki: Not Active
[7]
  IC50: Not Active

## O=C(O)P(=O)(O)O [FOSCARNET]
[1]
  IC50: Not Active
[2]
  IC50: Not Active
  Ki: Not Active
[3]
  IC50: Not Active
[4]
  IC50: Not Active
[5]
  IC50: Not Active
[6]
  IC50: Not Active
  Ki: Not Active
[7]
  IC50: Not Active

## Cc1ccc(C)c(OCCCC(C)(C)C(=O)O)c1 [GEMFIBROZIL]
[1]
  IC50: Not Active
[2]
  IC50: Not Active
  Ki: Not Active
[3]
  IC50: Not Active
[4]
  IC50: Not Active
[5]
  IC50: Not Active
[6]
  IC50: Not Active
  Ki: Not Active
[7]
  IC50: Not Active

## O=c1c(-c2ccc(O)cc2)coc2cc(O)cc(O)c12 [GENISTEIN]
[1]
  IC50: Not Active
[2]
  IC50: Not Active
  Ki: Not Active
[3]
  IC50: Not Active
[4]
  IC50: Not Active
[5]
  IC50: Not Active
[6]
  IC50: Not Active
  Ki: Not Active
[7]; read-out: IC50
  IC50: 45 µM

## CCC1=C(C)CN(C(=O)NCCc2ccc(S(=O)(=O)NC(=O)N[C@H]3CC[C@H](C)CC3)cc2)C1=O [GLIMEPIRIDE]
[1]
  IC50: Not Active
[2]
  IC50: Not Active
  Ki: Not Active
[3]
  IC50: Not Active
[4]
  IC50: Not Active
[5]
  IC50: Not Active
[6]
  IC50: Not Active
  Ki: Not Active
[7]
  IC50: Not Active

## Nc1cc(-c2ccncc2)c[nH]c1=O [INAMRINONE]
[1]
  IC50: Not Active
[2]
  IC50: Not Active
  Ki: Not Active
[3]
  IC50: Not Active
[4]
  IC50: Not Active
[5]
  IC50: Not Active
[6]
  IC50: Not Active
  Ki: Not Active
[7]
  IC50: Not Active

## CCCCC1=NC2(CCCC2)C(=O)N1Cc1ccc(-c2ccccc2-c2nnn[nH]2)cc1 [IRBESARTAN]
[1]
  IC50: Not Active
[2]
  IC50: Not Active
  Ki: Not Active
[3]
  IC50: Not Active
[4]
  IC50: Not Active
[5]
  IC50: Not Active
[6]
  IC50: Not Active
  Ki: Not Active
[7]
  IC50: Not Active
